Values joined by “and” are separate entries in the source; they are usually repeats but may differ in a detail not shown here. Equal values may be shown once.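 Exposure lasted 48 hours, with cells grown in 96-well plates and compounds tested at five concentrations. At the GI50, growth is halved. TGI marks complete inhibition of growth.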
Legend:
Assay in all cases: NCI anticancer screen, dose series, 48 h
[1] = tested on: A549 NSCLC
[2] = tested on: COLO 205 colon
[3] = tested on: MDA-MB-435
[4] = tested on: NCI-H226 lung
[5] = tested on: OVCAR-5 ovarian
[6] = tested on: RPMI-8226 leukemia
[7] = tested on: RXF 393 renal
[8] = tested on: SF-295 CNS
[9] = tested on: SK-MEL-28 melanoma
[10] = tested on: T-47D breast

| Compound | GI50 [1] [µM] | TGI [1] [µM] | GI50 [2] [µM] | TGI [2] [µM] | GI50 [3] [µM] | TGI [3] [µM] | GI50 [4] [µM] | TGI [4] [µM] | GI50 [5] [µM] | TGI [5] [µM] | GI50 [6] [µM] | TGI [6] [µM] | GI50 [7] | TGI [7] | GI50 [8] | TGI [8] [µM] | GI50 [9] [µM] | TGI [9] [µM] | GI50 [10] [µM] | TGI [10] [µM] |
| --- | --- | --- | --- | --- | --- | --- | --- | --- | --- | --- | --- | --- | --- | --- | --- | --- | --- | --- | --- | --- |
| O=C(Nc1cc(Cl)ccc1O)c1ccccc1Nc1ccnc(C(F)(F)F)c1 | 3.38 | 13.1 | 2.38 | 5.4 | 3.33 | 11.3 | 2.11 | 9.17 | 5.6 | 23.3 | 1.94 | 7.43 | 2.77 µM | 10.6 µM | 2.5 µM | 6.78 | 3 | 12.2 | 2.47 | 8.5 |
| O=C1NC2(CCCCC2)C(=O)N1CCN(CCCl)CCCl | > 25 | > 250 | > 25 | > 250 |  | > 25 | > 25 | > 250 | > 25 | > 250 | > 25 | > 250 | > 25 µM and 99.2 µM | > 25 µM and 202 µM | > 25 µM and 138 µM | > 250 | > 25 | > 114 |  | 25 |
| CCN(CC)CCN1c2nc3ccccc3cc2Sc2cc3ccccc3nc21 | 2.34 | 6.12 | 1.35 | 2.85 | 1.8 | 3.97 | 3.31 | 14.2 | 1.65 | 4.55 | 1 | 2.97 | 3.78 µM | 18 µM | 1.56 µM | 3.45 | 1.8 | 3.49 | 3.09 | 12.5 |
| COc1ccccc1[As]=[As]c1ccccc1OC (stereo not drawn) | 0.0973 | 0.289 | 0.0209 | 0.0475 | 0.0511 | 0.196 | 0.0723 | 0.21 | 0.0627 | 0.181 | 0.0278 | 0.0832 | 0.0257 µM | 0.0644 µM | 0.104 µM | 0.264 | 0.0437 | 0.153 | 0.0366 | 0.199 |
| O=C1Nc2ccccc2/C1=C\c1nc(-c2ccccc2F)n2ccccc12 | 3.46 | 10.3 | 4.08 | 14.9 | 3.95 | 16.1 | 4.78 | 21.3 | 18 | 53.5 | 51.4 | > 100 | 3.14 µM | 10.7 µM | 3.68 µM | 13.7 | 3.71 | 14.6 | 2.36 | 8.11 |
| CC(=O)/C(Br)=C/c1ccc(Br)o1 | 26.8 | 86.4 | 7.55 | 20.9 | 8.51 | 23.2 | 12.7 | 26.2 | 13.7 | 34.4 | 4.73 | 13.1 | 2.86 µM | 11 µM | 18.7 µM | 38.7 | 2.87 | 9.18 | 8.89 | 24.2 |
